Assay results as given in ChEMBL document CHEMBL5331097, “Synthesis and evaluation of a new class of MIF-inhibitors in activated macrophage cells and in experimental septic shock in mice” (Eur J Med Chem, 2023).
Calls of active or inactive are those of the source. The calls are words filed in the database; no cut-off is given here.

Columns and labels:
[1] = target: T1, Macrophage migration inhibitory factor (Homo sapiens, UniProt P14174); test: Inhibition of human recombinant MIF enolase activity using phenylpyruvate as substrate
T1 sequence (P14174 whole entry): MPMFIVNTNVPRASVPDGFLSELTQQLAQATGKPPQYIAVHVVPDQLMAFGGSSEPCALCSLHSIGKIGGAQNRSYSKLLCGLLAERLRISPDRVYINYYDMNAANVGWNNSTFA

[2] = target: T1, Macrophage migration inhibitory factor; test: Inhibition of human recombinant MIF ketonase activity using phenylpyruvate as substrate
RAW264.7 [3] = test: Reduction of macrophage activation in LPS induced mouse RAW264.7 cells assessed as reduction in TNF-alpha production at 50 uM pretreated for 30 mins followed by LPS addition after 24 hrs by ELISA method; assay type: functional, cell-based; details: time 24.5 hrs
RAW264.7 [4] = test: Antiproliferative activity against LPS induced mouse RAW264.7 cells at 50 uM measured after 24 hrs; assay type: functional, cell-based
RAW264.7 [5] = test: Antiinflammatory activity in LPS induced mouse RAW264.7 cells assessed as reduction of ROS production at 50 uM pretreated for 30 mins followed by LPS addition measured after 24 hrs measured by fluorescence based assay; assay type: functional, cell-based; details: time 24.5 hrs
RAW264.7 [6] = test: Reduction of macrophage activation in LPS induced mouse RAW264.7 cells assessed as reduction in IL-6 production at 50 uM pretreated for 30 mins followed by LPS addition after 24 hrs by ELISA method; assay type: functional, cell-based; details: time 24.5 hrs
RAW264.7 [7] = test: Reduction of macrophage activation in LPS induced mouse RAW264.7 cells assessed as NF-kappaB activation at 50 uM pretreated for 30 mins followed by LPS addition measured after 24 hrs relative to control; assay type: functional; parameters: scale not given: the % may be the effect or the level left; details: time 24.5 hrs
RAW264.7 [8] = test: Antiinflammatory activity in LPS induced mouse RAW264.7 cells assessed as reduction of nitrite production at 50 uM pretreated for 30 mins followed by LPS addition measured after 24 hrs measured by Griess reagent method; assay type: functional, cell-based; details: time 24.5 hrs
RAW264.7 [9] = test: Reduction of macrophage activation in LPS induced mouse RAW264.7 cells assessed as NF-kappaB activation at 50 uM pretreated for 30 mins followed by LPS addition measured after 24 hrs; assay type: functional, cell-based; details: time 24.5 hrs
Mus musculus = test: Protection against C57BL/6 mouse assessed as increase in LPS-induced colonic temperature at 1.8 mg/kg, ip for 30 mins followed by LPS addition measured from 130 to 360 mins; assay type: functional, organism-based; details: time 160-390 min
RAW264.7 [10] = test: Antiproliferative activity against LPS induced mouse RAW264.7 cells assessed as decrease in number of living cells at 50 uM pretreated for 30 mins followed by LPS addition measured after 24 hrs relative to control; assay type: functional; parameters: scale not given: the % may be the effect or the level left; details: time 24.5 hrs

Structure (SMILES) | IC50 ([1]; read-out: IC50) [µM] | IC50 ([2]; read-out: IC50) [µM] | also measured
O=C1/C(=C/c2ccccc2)CCc2cc(O)ccc21 | 1.99 | 2.04 | Activity (RAW264.7 [3]): Active; Activity (RAW264.7 [4]): inactive; Activity (RAW264.7 [5]): inactive; Activity (RAW264.7 [6]): Active; Activity (RAW264.7 [7]): ~35%; Activity (RAW264.7 [8]): Active
COc1ccc2c(c1)CC/C(=C\c1ccccc1)C2=O | 126 | 48.9 | –
O=C1/C(=C/c2ccc(O)cc2)Cc2ccccc21 | 1.22 | 0.88 | Activity (RAW264.7 [3]): Active; Activity (RAW264.7 [4]): inactive; Activity (RAW264.7 [9]): inactive; Activity (RAW264.7 [6]): Active
COc1ccc2c(c1)CC/C(=C\c1cccnc1)C2=O | 81.4 | 63.4 | –
O=C1/C(=C/c2ccccc2O)Cc2ccccc21 | 401 | 40.7 | –
COc1cc(/C=C2\CCc3ccccc3C2=O)ccc1O | – | 51.1 | –
COc1cc(/C=C2\CCc3cc(O)ccc3C2=O)ccc1O | 30.9 | 30.4 | –
O=C1/C(=C/c2c[nH]c3ccccc23)CCc2cc(O)ccc21 | 210 | 60.7 | –
Cc1ccc(/C=C2\CCc3cc(O)ccc3C2=O)cc1 | 71.4 | 51.5 | –
COc1ccc2c(c1)CC/C(=C\c1ccc(O)c(OC)c1)C2=O | 53 | 49.2 | –
COc1ccc2c(c1)CC/C(=C\c1ccc(O)c(O)c1)C2=O | 132 | 78 | –
O=C1/C(=C/c2cccc(O)c2)CCc2cc(O)ccc21 | 111 | 19.6 | –
O=C1/C(=C/c2ccccn2)CCc2cc(O)ccc21 | 65.9 | 32.1 | –
O=C1/C(=C/c2ccc(O)cc2)CCc2ccccc21 | 1.94 | 49.2 | Activity (RAW264.7 [3]): Active; Activity (RAW264.7 [4]): inactive; Activity (Mus musculus): Active; Activity (RAW264.7 [6]): Active; Activity (RAW264.7 [7]): ~35%
O=C1/C(=C/c2ccco2)CCc2cc(O)ccc21 | 38.2 | 31.4 | –
O=C1/C(=C/c2ccc(O)cc2)CCc2cc(O)ccc21 | – | 23.9 | IC50 [1]: Not Active

Structure (SMILES) | IC50 ([1]; read-out: IC50) [µM] | IC50 ([2]; read-out: IC50) [µM] | also measured
O=C1/C(=C/c2ccc[nH]2)CCc2cc(O)ccc21 | 81.3 | 162 | –
O=C1/C(=C/c2ccc(O)cc2)COc2cc(O)ccc21 | 8.72 | 1.54 | Activity (RAW264.7 [3]): Active; Activity (RAW264.7 [4]): inactive; Activity (RAW264.7 [9]): inactive; Activity (RAW264.7 [6]): Active; Activity (RAW264.7 [8]): Active
O=C1/C(=C/C=C/c2ccccc2)CCc2cc(O)ccc21 | – | 35.2 | IC50 [1]: Not Active
COc1cc(/C=C2\CCc3cc(O)ccc3C2=O)cc(OC)c1OC | 484 | 64.7 | –
O=C1/C(=C/c2ccc(O)cc2)COc2ccccc21 | 72.7 | 127 | –
COc1ccc2c(c1)C/C(=C\c1cccc(O)c1O)C2=O | 28.9 | 67.3 | –
CC(C)c1ccc(/C=C2\CCc3cc(O)ccc3C2=O)cc1 | 4.43 | 2.12 | –
COc1ccc2c(c1)CC/C(=C\c1ccc(C)cc1)C2=O | 2620 | – | IC50 [2]: Not Active
O=C1/C(=C/c2ccccc2O)CCc2ccccc21 | 1160 | 29.8 | –
O=C1/C(=C/c2cccc(O)c2O)Cc2ccccc21 | 39.3 | 2.05 | –
COc1ccc(/C=C2\Cc3ccccc3C2=O)cc1O | 1.32 | 4.95 | Activity (RAW264.7 [3]): Active; Activity (RAW264.7 [9]): inactive; Activity (RAW264.7 [6]): Active; Activity (RAW264.7 [10]): 80.46%
COc1cc(/C=C2\Cc3ccccc3C2=O)ccc1O | 14.5 | 96.5 | –
O=C1/C(=C/c2ccc(O)cc2)CSc2ccccc21 | 827 | 99.3 | –
COc1ccc2c(c1)CC/C(=C\c1ccc(O)cc1)C2=O | 2.98 | 2.99 | –
O=C1/C(=C/c2ccccc2)COc2cc(O)ccc21 | 23.4 | 42.7 | –

Continued, in another order:

IC50 ([1]; read-out: IC50) [µM] | IC50 ([2]; read-out: IC50) [µM] | Structure (SMILES) | also measured
44 | 67.2 | COc1ccc(/C=C2\CCc3cc(O)ccc3C2=O)cc1 | –
73.8 | 204 | COc1ccc2c(c1)C(=O)/C(=C/c1ccc(OC)c(O)c1)C2 | –
35.9 | 25.4 | O=C1/C(=C/c2cccc(O)c2)CCc2ccccc21 | –
24.9 | 65 | O=C1/C(=C/c2cc(O)cc(O)c2)CCc2ccccc21 | –
50.2 | 39.1 | O=C1/C(=C/c2ccccc2O)CCc2cc(O)ccc21 | –
6.46 | 51 | O=C1/C(=C/c2cccs2)CCc2cc(O)ccc21 | –
102 | 33.4 | O=C1/C(=C/c2ccc(O)cc2)CS(=O)(=O)c2ccccc21 | –
38.3 | 19.8 | COc1ccc2c(c1)C(=O)/C(=C/c1ccc(O)c(OC)c1)C2 | –
41.3 | 8.75 | CCN(CC)CCOc1ccc(/C=C2\CCc3cc(O)ccc3C2=O)cc1 | –
107 | 58.8 | COc1ccc2c(c1)CC/C(=C\c1ccncc1)C2=O | –
65.8 | 22 | O=C1/C(=C/c2ccc3c(c2)OCO3)CCc2cc(O)ccc21 | –
17 | 9.88 | COc1ccc2c(c1)C(=O)/C(=C/c1cccc(O)c1O)C2 | –
104 | – | COc1cc(/C=C2\CCc3cc(OC)c(OC)cc3C2=O)ccc1O | IC50 [2]: Not Active
– | 12.9 | O=C1/C(=C/c2ccc(O)c(O)c2)Cc2ccccc21 | IC50 [1]: Not Active
39.7 | 25.7 | CN(C)c1ccc(/C=C2\CCc3cc(O)ccc3C2=O)cc1 | –
13.8 | 67.2 | O=C1/C(=C/c2ccc(O)cc2)CCCc2ccccc21 | –
33.3 | 72.6 | O=C1/C(=C/c2cccnc2)CCc2cc(O)ccc21 | –
– | 68 | N#Cc1ccc(/C=C2\CCc3cc(O)ccc3C2=O)cc1 | IC50 [1]: Not Active
